Assay results published in the NIST ThermoML archive (doi:10.1021/acs.jced.9b00607).
Numbers after ± are expanded uncertainties.

Experiment: wn = mass fraction of the nth substance listed
Conditions: 102 kPa, Liquid; for viscosity: Falling or rolling sphere viscometry; for mass density: Vibrating tube method

CN(CCO)CCO [N-methyldiethanolamine] + OCCO
Conditions | mass density [kg/m3] | viscosity [mPa·s]
283.15 K, w1 = 0.3 | 1101.8 ± 0.3 | 64.36 ± 4.2
283.15 K, w1 = 0.4 | 1095.1 ± 0.3 | 80.69 ± 4.3
283.15 K, w1 = 0.5 | 1088.1 ± 0.4 | 99.66 ± 4.7
283.15 K, w1 = 0.7 | 1073.3 ± 0.5 | –
283.15 K, w1 = 0.8 | 1065.4 ± 0.7 | 164.27 ± 7.6
283.15 K, w1 = 0.9 | 1057.2 ± 0.8 | 181.33 ± 8.6
283.15 K, w1 = 1 | 1048 ± 0.3 | 198.15 ± 9.4
298.15 K, w1 = 0.3 | 1090.9 ± 0.3 | 30.43 ± 1.1
298.15 K, w1 = 0.4 | 1084.3 ± 0.3 | 36.57 ± 1.1
298.15 K, w1 = 0.5 | 1077.2 ± 0.4 | 43.55 ± 1.2
298.15 K, w1 = 0.7 | 1062.1 ± 0.5 | 58.07 ± 2.7
298.15 K, w1 = 0.8 | 1054 ± 0.7 | 66.59 ± 2.7
298.15 K, w1 = 0.9 | 1045.6 ± 0.8 | 69.21 ± 2.8
298.15 K, w1 = 1 | 1036.8 ± 0.3 | 74.87 ± 1.5
313.15 K, w1 = 0.3 | 1079.9 ± 0.2 | 15.89 ± 1.1
313.15 K, w1 = 0.4 | 1073.2 ± 0.3 | 18.52 ± 1.1
313.15 K, w1 = 0.5 | 1066 ± 0.3 | 21.58 ± 1.1
313.15 K, w1 = 0.7 | 1050.8 ± 0.5 | 27.72 ± 1.1
313.15 K, w1 = 0.8 | 1042.6 ± 0.7 | 30.49 ± 1.1
313.15 K, w1 = 0.9 | 1034.1 ± 0.8 | 33.05 ± 1.1
313.15 K, w1 = 1 | 1025.3 ± 0.3 | 35.05 ± 1.1
323.15 K, w1 = 0.3 | 1072.5 ± 0.2 | 10.8 ± 0.35
323.15 K, w1 = 0.4 | 1065.7 ± 0.3 | 12.43 ± 0.36
323.15 K, w1 = 0.5 | 1058.5 ± 0.3 | 14.2 ± 0.36
323.15 K, w1 = 0.7 | 1043.1 ± 0.5 | 17.75 ± 0.39
323.15 K, w1 = 0.8 | 1034.9 ± 0.7 | 19.48 ± 0.4
323.15 K, w1 = 0.9 | 1026.4 ± 0.8 | 20.91 ± 0.4
323.15 K, w1 = 1 | 1017.7 ± 0.2 | 21.96 ± 0.43
333.15 K, w1 = 0.3 | 1065.1 ± 0.2 | 7.82 ± 0.47
333.15 K, w1 = 0.4 | 1058.1 ± 0.3 | 8.82 ± 0.48
333.15 K, w1 = 0.5 | 1050.9 ± 0.3 | 9.94 ± 0.48
333.15 K, w1 = 0.7 | 1035.4 ± 0.5 | 12.17 ± 0.49
333.15 K, w1 = 0.8 | 1027.2 ± 0.7 | 13.26 ± 0.49
333.15 K, w1 = 0.9 | 1018.7 ± 0.8 | 14.12 ± 0.49
333.15 K, w1 = 1 | 1010 ± 0.2 | 14.83 ± 0.49
343.15 K, w1 = 0.3 | 1057.4 ± 0.2 | 5.75 ± 0.46
343.15 K, w1 = 0.4 | 1050.5 ± 0.3 | 6.45 ± 0.46
343.15 K, w1 = 0.5 | 1043.1 ± 0.3 | 7.17 ± 0.46
343.15 K, w1 = 0.7 | 1027.5 ± 0.5 | 8.61 ± 0.47
343.15 K, w1 = 0.8 | 1019.3 ± 0.7 | 9.26 ± 0.47
343.15 K, w1 = 0.9 | 1010.9 ± 0.8 | 9.81 ± 0.47
343.15 K, w1 = 1 | 1002.2 ± 0.2 | 10.29 ± 0.54
353.15 K, w1 = 0.3 | 1049.7 ± 0.2 | 4.44 ± 0.31
353.15 K, w1 = 0.4 | 1042.7 ± 0.3 | 4.89 ± 0.31
353.15 K, w1 = 0.5 | 1035.3 ± 0.3 | 5.36 ± 0.31
353.15 K, w1 = 0.7 | 1019.7 ± 0.5 | 6.32 ± 0.32
353.15 K, w1 = 0.8 | 1011.5 ± 0.7 | 6.76 ± 0.32
353.15 K, w1 = 0.9 | 1003 ± 0.8 | 7.13 ± 0.32
353.15 K, w1 = 1 | 994.5 ± 0.2 | 7.4 ± 0.32
